In this experiment the target is S. aureus (SAU) GyrB ATPase (Staphylococcus aureus, UniProt P0A0K8). Kind of experiment: S. aureus GyrB ATPase inhibition, ammonium molybdate/malachite green phosphate detection assay. The class given is biochemical. As to conditions: for inhibition at 12.5 µM: read-out: S. aureus (SAU) GyrB ATPase % Inhibition, compound concentration 12.5 μM. Here is the method:
Compounds were tested for inhibition of GyrB ATPase activity using an ammonium molybdate/malachite green-based phosphate detection assay (Lanzetta, P. A., L. J. Alvarez, P. S. Reinach, and O. A. Candia, 1979, 100: 95-97). Assays were performed in multiwell plates in 100 μl reactions containing: 50 mM Hepes buffer pH 7.5, 75 mM ammonium acetate, 8.0 mM magnesium chloride, 1.0 mM ethylenediaminetetraacetic acid, 5% glycerol, 2 mM 1,4-Dithio-DL-threitol, 400 nM bovine serum albumin, 5 μg/ml sheared salmon sperm DNA, 1.25 nM E. coli GyrA, 1.25 nM S. aureus GyrB, 500 μM ATP, and compound in dimethylsulfoxide. Reactions were quenched with 150 μl of ammonium molybdate/malachite green detection reagent containing 1.2 mM malachite green hydrochloride, 8.5 mM ammonium molybdate tetrahydrate, and 1 M hydrochloric acid. Plates were read in an absorbance plate reader at 650 nm and percent inhibition values were calculated using dimethylsulfoxide (2%)-containing reactions as 0% inhibition and novobiocin-containing (2 μM) reactions as 100% inhibition controls. Compound potency was based on IC50 measurements determined from reactions performed in the presence of 10 different compound concentrations.

13 compounds from US7674801B2 (AstraZeneca AB, priority 2006, dated 2010) can be followed below.

Sequence of S. aureus (SAU) GyrB ATPase (P0A0K8 whole entry): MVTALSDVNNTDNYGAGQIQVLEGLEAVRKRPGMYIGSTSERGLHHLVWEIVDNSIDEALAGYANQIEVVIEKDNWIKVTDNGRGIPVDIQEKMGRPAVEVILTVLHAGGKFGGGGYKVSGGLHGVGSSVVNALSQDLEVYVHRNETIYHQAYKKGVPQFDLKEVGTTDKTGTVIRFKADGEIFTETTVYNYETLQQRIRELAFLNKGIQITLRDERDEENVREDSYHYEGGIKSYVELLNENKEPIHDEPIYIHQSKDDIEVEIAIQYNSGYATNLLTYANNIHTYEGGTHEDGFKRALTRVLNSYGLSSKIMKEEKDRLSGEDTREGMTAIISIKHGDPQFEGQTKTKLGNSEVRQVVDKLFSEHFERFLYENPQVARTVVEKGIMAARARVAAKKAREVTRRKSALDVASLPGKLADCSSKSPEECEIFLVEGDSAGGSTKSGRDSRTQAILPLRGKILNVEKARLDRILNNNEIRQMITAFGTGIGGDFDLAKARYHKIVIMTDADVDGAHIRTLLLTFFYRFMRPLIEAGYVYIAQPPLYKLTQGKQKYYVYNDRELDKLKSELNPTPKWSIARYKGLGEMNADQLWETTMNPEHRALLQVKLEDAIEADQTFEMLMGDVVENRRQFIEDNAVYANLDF
Sequence of S. aureus (SAU) GyrB ATPase (P0AES4 whole entry, further chain): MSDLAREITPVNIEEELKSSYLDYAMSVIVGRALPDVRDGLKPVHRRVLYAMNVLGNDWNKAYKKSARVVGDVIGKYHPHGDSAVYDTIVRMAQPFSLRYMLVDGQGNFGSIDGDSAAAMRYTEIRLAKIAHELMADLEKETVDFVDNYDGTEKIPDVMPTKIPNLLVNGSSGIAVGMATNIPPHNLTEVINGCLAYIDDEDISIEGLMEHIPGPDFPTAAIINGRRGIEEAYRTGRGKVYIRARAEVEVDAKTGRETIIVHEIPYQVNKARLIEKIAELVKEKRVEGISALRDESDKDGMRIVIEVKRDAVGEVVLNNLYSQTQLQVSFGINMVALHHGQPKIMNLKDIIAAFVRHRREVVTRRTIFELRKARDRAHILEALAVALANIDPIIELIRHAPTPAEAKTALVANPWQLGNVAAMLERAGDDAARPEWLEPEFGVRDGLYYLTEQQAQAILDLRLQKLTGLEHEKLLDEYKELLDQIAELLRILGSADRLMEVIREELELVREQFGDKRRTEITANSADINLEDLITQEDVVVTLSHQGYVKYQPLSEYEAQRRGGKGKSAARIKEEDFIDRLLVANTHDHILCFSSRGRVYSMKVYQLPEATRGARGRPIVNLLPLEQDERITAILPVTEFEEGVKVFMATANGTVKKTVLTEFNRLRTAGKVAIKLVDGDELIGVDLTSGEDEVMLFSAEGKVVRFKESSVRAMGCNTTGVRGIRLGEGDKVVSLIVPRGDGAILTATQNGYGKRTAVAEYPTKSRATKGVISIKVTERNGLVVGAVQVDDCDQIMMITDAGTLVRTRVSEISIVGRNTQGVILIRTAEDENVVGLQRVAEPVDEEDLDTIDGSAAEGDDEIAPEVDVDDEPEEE

On to `CCNC(=O)Nc1ccc(-c2nc(-c3nccn3CCOC)c(C(=O)O)s2)cn1` [Example 89, 2-(6-{[(ethylamino)carbonyl]amino}pyridin-3-yl)-4-[1-(2-methoxyethyl)-1H-imidazol-2-yl]-1,3-thiazole-5-carboxylic acid], for which the inhibition at 12.5 µM turned out to be 86.1%.

As to `CCNC(=O)Nc1ccc(-c2nc(-c3ncnn3C)c(C(=O)O)s2)cn1` [Example 90, 2-(6-{[(Ethylamino)carbonyl]amino}pyridin-3-yl)-4-(1-methyl-1H-1,2,4-triazol-5-yl)-1,3-thiazole-5-carboxylic acid], the “S. aureus (SAU) GyrB ATPase % Inhibition” value (compound concentration 12.5 μM, 12.5 µM) is on record as 19.71%.

On to `CCNC(=O)Nc1ccc(-c2nc(C(=O)NCCOC)c(C(=O)O)s2)cn1` [Example 91, 2-(6-{[(Ethylamino)carbonyl]amino}pyridin-3-yl)-4-{[(2-methoxyethyl)amino]carbonyl}-1,3-thiazole-5-carboxylic acid], for which the inhibition at 12.5 µM worked out at 101%.

As for `CCNC(=O)Nc1ccc(-c2nc(C(=O)N[C@@H](C)COC)c(C(=O)O)s2)cn1` [Example 92, 2-(6-{[(ethylamino)carbonyl]amino}pyridin-3-yl)-4-({[(1S)-2-methoxy-1-methylethyl]amino}carbonyl)-1,3-thiazole-5-carboxylic acid], the inhibition at 12.5 µM is 101%.

Consider `CCNC(=O)Nc1ccc(-c2nc(-c3nccn3C)c(C(=O)O)s2)cn1` [Example 93, 2-(6-{[(Ethylamino)carbonyl]amino}pyridin-3-yl)-4-(1-methyl-1H-imidazol-2-yl)-1,3-thiazole-5-carboxylic acid], for which the inhibition at 12.5 µM was found to be 99.1%.

Take `CCNC(=O)Nc1ccc(-c2nc(C(=O)NC(C)(C)C)c(C(=O)O)s2)cn1` [Example 94, 4-[(tert-Butylamino)carbonyl]-2-(6-{[(ethylamino)carbonyl]amino}pyridin-3-yl)-1,3-thiazole-5-carboxylic acid]: the inhibition at 12.5 µM was 98.9%.

In the case of `CCNC(=O)Nc1cc(-c2ccccc2)c(-c2cncc(C(=O)O)c2)cn1` [Example 95, 6′-{[(Ethylamino)carbonyl]amino}-4′-phenyl-3,3′-bipyridine-5-carboxylic acid], the inhibition at 12.5 µM came out at 100%.

Take `CCNC(=O)Nc1cc(-c2ccccc2)c(-c2cccc(C(=O)O)c2)cn1` [Example 96, 3-(6-{[(Ethylamino)carbonyl]amino}-4-phenylpyridin-3-yl)benzoic acid]: the inhibition at 12.5 µM worked out at 95.4%.

`CCNC(=O)Nc1cc(-c2ccccc2)c(-c2ncc(C(=O)O)s2)cn1` [Example 97, 2-(6-{[(Ethylamino)carbonyl]amino}-4-phenylpyridin-3-yl)-1,3-thiazole-5-carboxylic acid]: the inhibition at 12.5 µM was determined as 101%.

With `CCCCNC(=O)c1nc(-c2cnc(NC(=O)NCC)cc2-c2ccccc2)sc1C(=O)O` [Example 98, 4-[(Butylamino)carbonyl]-2-(6-{[(ethylamino)carbonyl]amino}-4-phenylpyridin-3-yl)-1,3-thiazole-5-carboxylic acid], the inhibition at 12.5 µM was found to be 99.3%.

For `CCNC(=O)Nc1cc(-c2nc(CC)cs2)c(-c2cncc(C(=O)O)c2)cn1` [Example 99, 6′-{[(Ethylamino)carbonyl]amino}-4′-(4-ethyl-1,3-thiazol-2-yl)-3,3′-bipyridine-5-carboxylic acid], the inhibition at 12.5 µM amounted to 102%.

`CCNC(=O)Nc1cc(-c2nc(CC)cs2)c(-c2cccc(C(=O)O)c2)cn1` [Example 100, 3-[6-{[(Ethylamino)carbonyl]amino}-4-(4-ethyl-1,3-thiazol-2-yl)pyridin-3-yl]benzoic acid]: the inhibition at 12.5 µM was found to be 99.7%.

As to `CCNC(=O)Nc1cc(-c2nc(C(F)(F)F)cs2)c(-c2cncc(C(=O)O)c2)cn1` [Example 101, 6′-{[(Ethylamino)carbonyl]amino}-4′-[4-(trifluoromethyl)-1,3-thiazol-2-yl]-3,3′-bipyridine-5-carboxylic acid], the inhibition at 12.5 µM stood at 98.3%.
